Values joined by “and” are separate entries in the source; they are usually repeats but may differ in a detail not shown here. Equal values may be shown once.
Columns and labels:
Format in all cases: in vivo, human
[1] = Study 1: open-label 2-way crossover relative bioavailability, tablet vs oral liquid formulation; conditions: for Tmax / AUC(0-t) / AUC(0-inf) / half-life: human, plasma; for half-life: read-out: T1/2 Mean (converted)
Protocol: (§1) Frel of a crushed tablet administered via NGT versus oral liquid formulation was also evaluated. […] The effect of different flush media [D5W and infant formula (Similac®)] and coadministered nutritional supplement (Boost Plus®) on the liquid formulation's bioavailability was assessed.
(§2) Three open-label, randomized, crossover studies were conducted. […] Serial pharmacokinetics samples were collected. […] Frel was defined as the ratio of AUCinf.
(§3) Key exclusion criteria included: (i) any history or evidence of abnormal bleeding or coagulation disorders, intracranial hemorrhage, or abnormal bleeding; (ii) any gastrointestinal surgery that could impact upon the absorption of study drug; and (iii) current or recent (within 3 months) gastrointestinal disease including, but not limited to dyspepsia, gastrointestinal ulcers, esophageal or gastric varices, or hemorrhoids.

[2] = Study 2: open-label 3-way crossover, liquid formulation oral vs NGT with D5W or infant formula flush; conditions: for half-life / Tmax / AUC(0-t) / AUC(0-inf): human, plasma, 5 mg
Protocol: as §1, §2, §3

[3] = Study 3: open-label 3-way crossover, liquid formulation oral vs NGT with Boost Plus vs crushed tablet via NGT; conditions: for half-life / AUC(0-t) / AUC(0-inf) / Tmax: human, plasma, 5 mg; for Tmax: read-out: Tmax Median
Protocol: as §1, with “The apixaban liquid formulation was administered orally (PO), via nasogastric tube (NGT) with different flush media, or with an enteral meal (BOOST Plus®). Frel” for “Frel”
as §2, §3

[4] = Safety assessments in the studies (adverse events, vital signs, ECGs, laboratory tests); conditions: healthy subjects in the studies, 5 or 10 mg single doses
Excerpt: Safety assessments were made based on adverse event reports and the results of vital sign measurements, ECGs, physical examinations, and clinical laboratory tests.

[5] = Study 1, Treatment A: 2 × 5 mg Phase 3 tablets, oral, healthy subjects

SMILES: COc1ccc(-n2nc(C(N)=O)c3c2C(=O)N(c2ccc(N4CCCCC4=O)cc2)CC3)cc1 [Apixaban, 4,5,6,7-tetrahydro-1-(4-methoxyphenyl)-7-oxo-6-[4-(2-oxo-1-piperidinyl)phenyl]-1H-pyrazolo[3,4-c]pyridine-3-carboxamide]
- Cmax Adj.Geo.Mean ([1]; Study 1, Treatment A: 2 × 5 mg Phase 3 tablets): 294 ng/mL
- Cmax Geo. Mean [1, 5]: 294 ng/mL
- Tmax Median [1, 5]: 2 h
- Cmax Adj.Geo.Mean ([1]; Study 1, Treatment B: 25 mL × 0.4 mg/mL liquid formulation): 287 ng/mL
- Cmax Geo. Mean ([1]; Study 1, Treatment B: 25 mL × 0.4 mg/mL liquid formulation, oral, healthy subjects): 287 ng/mL
- Tmax ([1]; 10 mg, Study 1, Treatment B: 25 mL × 0.4 mg/mL liquid formulation, oral, healthy subjects, read-out: Tmax Median): 2 h
- AUC(0-t) ([1]; oral, 10 mg, Study 1, Treatment A: 2 × 5 mg Phase 3 tablets, read-out: AUC(0-T) Adj.Geo.Mean): 2670 ng·h/mL
- AUC(0-inf) ([1]; oral, 10 mg, Study 1, Treatment A: 2 × 5 mg Phase 3 tablets, read-out: AUCinf Adj.Geo.Mean): 2710 ng·h/mL
- AUC(0-t) ([1]; oral, 10 mg, Study 1, Treatment B: 25 mL × 0.4 mg/mL liquid formulation, read-out: AUC(0-T) Adj.Geo.Mean): 2780 ng·h/mL
- AUC(0-inf) ([1]; oral, 10 mg, Study 1, Treatment B: 25 mL × 0.4 mg/mL liquid formulation, read-out: AUCinf Adj.Geo.Mean): 2850 ng·h/mL
- AUC(0-t) ([1]; po, 10 mg, Study 1, Treatment A: 2 × 5 mg Phase 3 tablets, oral, healthy subjects, read-out: AUC(0-T) Geo. Mean): 2660 ng·h/mL
- AUC(0-inf) ([1]; po, 10 mg, Study 1, Treatment A: 2 × 5 mg Phase 3 tablets, oral, healthy subjects, read-out: AUCinf Geo. Mean): 2710 ng·h/mL
- half-life ([1]; po, 10 mg, Study 1, Treatment A: 2 × 5 mg Phase 3 tablets, oral, healthy subjects): 738 min
- AUC(0-t) ([1]; po, 10 mg, Study 1, Treatment B: 25 mL × 0.4 mg/mL liquid formulation, oral, healthy subjects, read-out: AUC(0-T) Geo. Mean): 2790 ng·h/mL
- AUC(0-inf) ([1]; po, 10 mg, Study 1, Treatment B: 25 mL × 0.4 mg/mL liquid formulation, oral, healthy subjects, read-out: AUCinf Geo. Mean): 2860 ng·h/mL
- half-life ([1]; po, 10 mg, Study 1, Treatment B: 25 mL × 0.4 mg/mL liquid formulation, oral, healthy subjects): 828 min
- Tmax ([1]; summary over all treatments of Studies 1-3 except BOOST Plus, read-out: Tmax median): 0.5 to 2 h
- Cmax Geo. Mean ([2]; Study 2, Treatment A: 5 mg (12.5 mL) liquid formulation by mouth via oral syringe): 189 ng/mL
- Cmax Adj.Geo.Mean ([2]; Study 2, Treatment A: liquid formulation by mouth): 191 ng/mL
- Cmax Adj.Geo.Mean ([2]; Study 2, Treatment B: liquid formulation via NGT, D5W flush): 182 ng/mL
- Frel Geo. Mean ([2]; Study 2, Treatment C (NGT, infant formula flush) versus oral liquid formulation): 0.922
- Cmax Geo. Mean ([2]; Study 2, Treatment C: 5 mg (12.5 mL) liquid formulation via NGT followed by 60 mL of infant formula via NGT): 153 ng/mL
- Cmax Adj.Geo.Mean ([2]; Study 2, Treatment C: liquid formulation via NGT, infant formula flush): 154 ng/mL
- Frel ([2]; Study 2, liquid formulation via NGT flushed with 60 mL infant formula versus oral liquid formulation): 92.2% and 92%
- half-life ([2]; Study 2, across the 3 treatments, read-out: mean T1/2 (converted)): ~630 min
- Tmax ([2]; Study 2, across the 3 treatments, read-out: median Tmax): 0.5 to 1 h
- AUC(0-t) ([2]; oral, Study 2, Treatment A: liquid formulation by mouth, read-out: AUC(0-T) Adj.Geo.Mean): 1270 ng·h/mL
- AUC(0-inf) ([2]; oral, Study 2, Treatment A: liquid formulation by mouth, read-out: AUCinf Adj.Geo.Mean): 1290 ng·h/mL
- AUC(0-t) ([2]; other: via nasogastric tube (NGT), Study 2, Treatment B: liquid formulation via NGT, D5W flush, read-out: AUC(0-T) Adj.Geo.Mean): 1230 ng·h/mL
- AUC(0-inf) ([2]; other: via nasogastric tube (NGT), Study 2, Treatment B: liquid formulation via NGT, D5W flush, read-out: AUCinf Adj.Geo.Mean): 1250 ng·h/mL
- AUC(0-t) ([2]; other: via nasogastric tube (NGT), Study 2, Treatment C: liquid formulation via NGT, infant formula flush, read-out: AUC(0-T) Adj.Geo.Mean): 1170 ng·h/mL
- AUC(0-inf) ([2]; other: via nasogastric tube (NGT), Study 2, Treatment C: liquid formulation via NGT, infant formula flush, read-out: AUCinf Adj.Geo.Mean): 1190 ng·h/mL
- AUC(0-t) ([2]; po, Study 2, Treatment A: 5 mg (12.5 mL) liquid formulation by mouth via oral syringe, read-out: AUC(0-T) Geo. Mean): 1260 ng·h/mL
- AUC(0-inf) ([2]; po, Study 2, Treatment A: 5 mg (12.5 mL) liquid formulation by mouth via oral syringe, read-out: AUCinf Geo. Mean): 1280 ng·h/mL
- half-life ([2]; po, Study 2, Treatment A: 5 mg (12.5 mL) liquid formulation by mouth via oral syringe, read-out: T1/2 Mean (converted)): 630 min
- Tmax ([2]; po, Study 2, Treatment A: 5 mg (12.5 mL) liquid formulation by mouth via oral syringe, read-out: Tmax Median): 0.517 h
- AUC(0-t) ([2]; po, Study 2, Treatment B: 5 mg (12.5 mL) liquid formulation via NGT followed by 60 mL of D5W via NGT, read-out: AUC(0-T) Geo. Mean): 1210 ng·h/mL
- AUC(0-inf) ([2]; po, Study 2, Treatment B: 5 mg (12.5 mL) liquid formulation via NGT followed by 60 mL of D5W via NGT, read-out: AUCinf Geo. Mean): 1240 ng·h/mL
- half-life ([2]; po, Study 2, Treatment B: 5 mg (12.5 mL) liquid formulation via NGT followed by 60 mL of D5W via NGT, read-out: T1/2 Mean (converted)): 624 min
- Tmax ([2]; po, Study 2, Treatment B: 5 mg (12.5 mL) liquid formulation via NGT followed by 60 mL of D5W via NGT, read-out: Tmax Median): 1 h
- AUC(0-t) ([2]; po, Study 2, Treatment C: 5 mg (12.5 mL) liquid formulation via NGT followed by 60 mL of infant formula via NGT, read-out: AUC(0-T) Geo. Mean): 1150 ng·h/mL
- AUC(0-inf) ([2]; po, Study 2, Treatment C: 5 mg (12.5 mL) liquid formulation via NGT followed by 60 mL of infant formula via NGT, read-out: AUCinf Geo. Mean): 1180 ng·h/mL
- half-life ([2]; po, Study 2, Treatment C: 5 mg (12.5 mL) liquid formulation via NGT followed by 60 mL of infant formula via NGT, read-out: T1/2 Mean (converted)): 636 min
- Tmax ([2]; po, Study 2, Treatment C: 5 mg (12.5 mL) liquid formulation via NGT followed by 60 mL of infant formula via NGT, read-out: Tmax Median): 1 h
- Cmax Geo. Mean (% CV) ([3]; Study 3, TRT A: 5 mg oral liquid formulation (0.4 mg/mL × 12.5 mL) administered orally): 177 ng/mL
- Cmax Adj.Geo.Mean ([3]; Study 3, TRT A: 5 mg oral liquid formulation administered orally): 179 ng/mL
- Frel Geo. Mean ([3]; Study 3, TRT B (liquid formulation after Boost Plus via NGT) versus oral liquid formulation): 0.813
- Cmax Geo. Mean (% CV) ([3]; Study 3, TRT B: 5 mg oral liquid formulation (0.4 mg/mL × 12.5 mL) after Boost Plus via NGT): 121 ng/mL
- Cmax Adj.Geo.Mean ([3]; Study 3, TRT B: 5 mg oral liquid formulation after Boost Plus via NGT): 122 ng/mL
- Frel Geo. Mean ([3]; Study 3, TRT C (crushed tablet via NGT) versus oral liquid formulation): 0.951
- Cmax Adj.Geo.Mean ([3]; Study 3, TRT C: 5 mg crushed tablet via NGT): 158 ng/mL
- Cmax Geo. Mean (% CV) ([3]; Study 3, TRT C: 5 mg crushed tablet via NGT (suspended in 60 mL D5W)): 158 ng/mL
- Frel ([3]; Study 3, crushed tablet via NGT versus oral liquid formulation): 95%
- Frel ([3]; Study 3, liquid formulation with BOOST Plus via NGT versus oral liquid formulation): 81%
- half-life ([3]; Study 3, between the 3 treatments, read-out: mean T1/2): 576 to 672 min
- AUC(0-t) ([3]; other: via nasogastric tube (NGT), Study 3, TRT C: 5 mg crushed tablet via NGT (suspended in 60 mL D5W), read-out: AUC(0-T) Geo. Mean (% CV)): 1300 ng·h/mL
- AUC(0-inf) ([3]; other: via nasogastric tube (NGT), Study 3, TRT C: 5 mg crushed tablet via NGT (suspended in 60 mL D5W), read-out: AUCinf Geo. Mean (% CV)): 1320 ng·h/mL
- half-life ([3]; other: via nasogastric tube (NGT), Study 3, TRT C: 5 mg crushed tablet via NGT (suspended in 60 mL D5W), read-out: T1/2 Mean (converted)): 624 min
- Tmax ([3]; other: via nasogastric tube (NGT), Study 3, TRT C: 5 mg crushed tablet via NGT (suspended in 60 mL D5W)): 1 h
- AUC(0-t) ([3]; other: via nasogastric tube (NGT), Study 3, TRT C: 5 mg crushed tablet via NGT, read-out: AUC(0-T) Adj.Geo.Mean): 1300 ng·h/mL
- AUC(0-inf) ([3]; other: via nasogastric tube (NGT), Study 3, TRT C: 5 mg crushed tablet via NGT, read-out: AUCinf Adj.Geo.Mean): 1330 ng·h/mL
- AUC(0-t) ([3]; po, Study 3, TRT A: 5 mg oral liquid formulation (0.4 mg/mL × 12.5 mL) administered orally, read-out: AUC(0-T) Geo. Mean (% CV)): 1350 ng·h/mL
- AUC(0-inf) ([3]; po, Study 3, TRT A: 5 mg oral liquid formulation (0.4 mg/mL × 12.5 mL) administered orally, read-out: AUCinf Geo. Mean (% CV)): 1380 ng·h/mL
- half-life ([3]; po, Study 3, TRT A: 5 mg oral liquid formulation (0.4 mg/mL × 12.5 mL) administered orally, read-out: T1/2 Mean (converted)): 673 min
- Tmax ([3]; po, Study 3, TRT A: 5 mg oral liquid formulation (0.4 mg/mL × 12.5 mL) administered orally): 1 h
- AUC(0-t) ([3]; po, Study 3, TRT A: 5 mg oral liquid formulation administered orally, read-out: AUC(0-T) Adj.Geo.Mean): 1370 ng·h/mL
- AUC(0-inf) ([3]; po, Study 3, TRT A: 5 mg oral liquid formulation administered orally, read-out: AUCinf Adj.Geo.Mean): 1400 ng·h/mL
- AUC(0-t) ([3]; po, Study 3, TRT B: 5 mg oral liquid formulation (0.4 mg/mL × 12.5 mL) after Boost Plus via NGT, read-out: AUC(0-T) Geo. Mean (% CV)): 1100 ng·h/mL
- AUC(0-inf) ([3]; po, Study 3, TRT B: 5 mg oral liquid formulation (0.4 mg/mL × 12.5 mL) after Boost Plus via NGT, read-out: AUCinf Geo. Mean (% CV)): 1120 ng·h/mL
- half-life ([3]; po, Study 3, TRT B: 5 mg oral liquid formulation (0.4 mg/mL × 12.5 mL) after Boost Plus via NGT, read-out: T1/2 Mean (converted)): 574 min
- Tmax ([3]; po, Study 3, TRT B: 5 mg oral liquid formulation (0.4 mg/mL × 12.5 mL) after Boost Plus via NGT): 3 h
- AUC(0-t) ([3]; po, Study 3, TRT B: 5 mg oral liquid formulation after Boost Plus via NGT, read-out: AUC(0-T) Adj.Geo.Mean): 1110 ng·h/mL
- AUC(0-inf) ([3]; po, Study 3, TRT B: 5 mg oral liquid formulation after Boost Plus via NGT, read-out: AUCinf Adj.Geo.Mean): 1140 ng·h/mL
- safety and tolerability [4]: safe and well tolerated

From patent US20160263097A1 (Bristol-Myers Squibb Company, priority 2012, published 2016)
